Common to all, as to experiment: DTP human tumour cell line panel, 48 h
Experiment [1] deals with MDA-MB-435.
Experiment [2] concerns SR leukemia.
In experiment [3] the test system is CAKI-1 renal.
The test system of experiment [4] is OVCAR-3 ovarian.
For experiment [5], the system named is SN12C renal.
For experiment [6], the system named is 786-0 renal.
Experiment [7] concerns A549 NSCLC.
For experiment [8], the system named is HOP-92 NSCLC.
Experiment [9] deals with SF-268 CNS.
In experiment [10] the test system is PC-3 prostate.

The record followed here is PubChem BioAssay (NCI).

Several values for one entry are separate records, joined by “and”; a condition that tells them apart may be missing. Identical values can stand only once.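 Step 1: Grow cells in 96-well plates. Step 2: Expose to compound for 48 hours at 5 concentrations. Step 3: Interpolate endpoints linearly; if unreached, use highest concentration. GI50 = concentration required for 50% inhibition of growth. TGI is the concentration that stops growth completely.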

On to `CCC(=O)Nc1ccc2c(c1)CN1C(=O)c3ccccc3C1=N2`, for which the GI50 in experiment [1], in [2], in [3], in [4], in experiment [5] and in [6] was over 100 µM each time. The GI50 in experiment [7], in [8], in experiment [9] and in experiment [10] was over 100 µM each time. Besides, the TGI in experiment [1], in [2], in [3], in experiment [4], in [5] and in experiment [6] was over 100 µM in each case. The TGI in [7], in experiment [8], in [9] and in experiment [10] was over 100 µM throughout.

On to `COc1ccc(C(=O)c2ccc(OC)cc2OC)cc1`, for which the GI50 (commonly the concentration that inhibits growth by half) in experiment [1] is 0.361 µM; in experiment [2], 0.891 µM; in [3], 3.75 µM; in experiment [4] it was 2.2 µM; in experiment [5] it was 5.58 µM; in experiment [6], 5.32 µM. Also, the GI50 is 5.55 µM in [7], 1.84 µM in experiment [8], 7.57 µM in experiment [9] and 4.38 µM in experiment [10]. Also, the TGI (in general, the concentration giving total growth inhibition) in experiment [1] is 2.34 µM; in experiment [2] it was over 100 µM; in experiment [3], over 100 µM; in [4], 5.95 µM; in [5] it was over 100 µM; in [6], over 100 µM. Further, the TGI is over 100 µM in experiment [7], 53.9 µM in [8], over 100 µM in experiment [9] and over 100 µM in experiment [10].

On to `O=S(=O)(NCCNc1cc(-c2cn(-c3ccccc3)nc2-c2cccc(O)c2)ccn1)c1ccc(F)cc1`, for which the GI50 is 2.3 µM in [1]; 1.6 µM in [2]; 3.89 µM in experiment [3]; 1.98 µM in experiment [4]; 3.69 µM in experiment [5]; 2.49 µM in [6]. Further, the GI50 is 3.43 µM in experiment [7], 2.03 µM in experiment [8], 2.42 µM in experiment [9] and 2.29 µM in [10]. Besides, the TGI in experiment [1] was 7.2 µM; in experiment [2], 4.88 µM; in experiment [3], over 100 µM; in experiment [4] it was 4.59 µM; in experiment [5] it was 35.1 µM; in experiment [6], 14.3 µM. For the same molecule, the TGI in experiment [7] was found to be 12.1 µM; in experiment [8], 8.48 µM; in experiment [9], 8.93 µM; in experiment [10], 10.3 µM.

On to `Cc1cc2c(cc1C)[n+](=O)c(C(=O)c1cccs1)c(C(F)(F)F)n2[O-]`, for which the GI50 in experiment [1] is 4.45 µM and 4.89 µM; in experiment [2], 0.924 µM; in [3], 2.32 µM and 2.48 µM; in experiment [4], 1.44 µM and 0.744 µM; in experiment [5] it was 1.31 µM; in experiment [6], 23 µM and 6.76 µM. Further, the GI50 in experiment [7] is 3.27 µM and 5.68 µM; in experiment [8], 1.53 µM and 5.5 µM; in experiment [9], 1.12 µM and 0.978 µM; in experiment [10] it was 0.827 µM and 7.09 µM. For the same molecule, the TGI in experiment [1] is 16 µM and 21.4 µM; in experiment [2], 8.11 µM; in experiment [3], 9.59 µM and 13.2 µM; in [4], 9.78 µM and 4.34 µM; in [5] it was 6.59 µM; in experiment [6] it was 50 µM and 24.5 µM. Further, the TGI in experiment [7] was 50 µM and 21.5 µM; in experiment [8], 10.6 µM and 37.9 µM; in experiment [9] it was 4.11 µM and 3.61 µM.

Regarding `CN1CCN(Cc2ccc(NC(=O)c3[nH]ncc3Nc3ccnc4ccsc34)cc2)CC1`, the GI50 was 3.22 µM in experiment [1]; 1.92 µM in experiment [2]; 6.04 µM in [3]; 2.34 µM in [4]; 2.78 µM in experiment [5]; 3.84 µM in [6]. Further, the GI50 in [7] is 3.04 µM; in experiment [8] it was 3.89 µM; in experiment [9], 3.22 µM; in [10] it was 3.25 µM. The TGI was found to be 17.9 µM in experiment [1]; 7 µM in experiment [2]; 27.6 µM in [3]; 11.5 µM in experiment [4]; 14.4 µM in experiment [5]; 13.6 µM in experiment [6]. For the same molecule, the TGI turned out to be 14.5 µM in experiment [7], 8.92 µM in experiment [8], 11 µM in experiment [9] and 20.2 µM in experiment [10].

In the case of `O=C1C=CC(=O)N1c1ccc2c(c1)Cc1cc(NC(=O)C(F)(F)F)ccc1-2`, the TGI in experiment [1] amounted to 31.5 µM; in experiment [2], 6.44 µM; in experiment [3] it was 32.7 µM; in experiment [4], 31.2 µM; in experiment [5], 32.1 µM; in experiment [6], 13 µM. The TGI in [7] came to 34.5 µM; in experiment [8] it was 33.1 µM; in experiment [9], 39.7 µM; in experiment [10], 33.1 µM.

Regarding `N#Cc1c(SCc2ccccc2)nc2[nH]c(=S)[nH]c(=S)c2c1-c1ccco1`, the GI50 in [1] is 59.5 µM; in experiment [2] it was 19.1 µM; in experiment [3], 42.9 µM; in [4] it was 25.8 µM; in experiment [5], 15.7 µM; in experiment [6], 42.6 µM. The GI50 in experiment [7] was 64.1 µM; in [8], 3.45 µM; in experiment [9], 32.4 µM; in [10], 0.448 µM. The TGI in experiment [1] was over 100 µM; in experiment [2] it was over 100 µM; in experiment [3], over 100 µM; in experiment [4], 73.5 µM; in experiment [5] it was 36.1 µM; in [6], over 100 µM. In addition, the TGI is over 100 µM in experiment [7], 26.2 µM in [8], over 100 µM in [9] and 20.5 µM in experiment [10].

For the molecule `c1cncc(-c2cc(-c3cc(-c4cccnc4)n[nH]3)[nH]n2)c1`, the TGI in experiment [1], in [2], in [3], in experiment [4], in experiment [5] and in [6] was over 100 µM throughout. For the same molecule, the TGI in experiment [7], in [8], in [9] and in experiment [10] was over 100 µM throughout.
